How the values were obtained:
Assay in all cases: IO staining of colonies of beta-D-galactosidase positive/negative bacteria (Table IVb)
Format in all cases: cell-based
Salmonella bongori 81 = settings: Salmonella bongori strain 81, b-gal +; 24 h on Nutrient Agar, 150 mg/l indicator, 100 mg/l IPTG
Escherichia coli 61 = settings: Escherichia coli strain 61, b-gal +; 24 h on Nutrient Agar, 150 mg/l indicator, 100 mg/l IPTG
[1] = system: Streptococcus agalactiae 195; settings: Streptococcus agalactiae strain 195, b-gal −; 24 h on Nutrient Agar, 150 mg/l indicator, 100 mg/l IPTG; on C: Color of colonies: key: −: absent; +/−: weak; +: strong; ++: very strong; on F: Fluorescence of colonies: key: −: absent; +/−: weak; +: strong; ++: very strong
[2] = system: Enterobacter aerogenes 242; settings: Enterobacter aerogenes strain 242, b-gal +; 24 h on Nutrient Agar, 150 mg/l indicator, 100 mg/l IPTG; on C: Color of colonies: key: −: absent; +/−: weak; +: strong; ++: very strong; on G: Growth of colonies: key: −: absent; +/−: weak; +: strong; ++: very strong
Serratia marcescens 40 = settings: Serratia marcescens strain 40, b-gal +; 24 h on Nutrient Agar, 150 mg/l indicator, 100 mg/l IPTG
[3] = system: Pseudomonas aeruginosa 168; settings: Pseudomonas aeruginosa strain 168, b-gal −, 24 h on Nutrient Agar, 150 mg/l indicator, 100 mg/l IPTG; for F: Fluorescence of colonies: footnote 1: blue autofluorescence; on C: Color of colonies: key: −: absent; +/−: weak; +: strong; ++: very strong; on G: Growth of colonies: key: −: absent; +/−: weak; +: strong; ++: very strong
Bacillus subtilis 65 = settings: Bacillus subtilis strain 65, b-gal −; 24 h on Nutrient Agar, 150 mg/l indicator, 100 mg/l IPTG
Enterobacter cloacae 245 = settings: Enterobacter cloacae strain 245, b-gal +; 24 h on Nutrient Agar, 150 mg/l indicator, 100 mg/l IPTG
Aeromonas hydrophila 292 = settings: Aeromonas hydrophila strain 292, b-gal +; 24 h on Nutrient Agar, 150 mg/l indicator, 100 mg/l IPTG
Shigella sonnei 133 = settings: Shigella sonnei strain 133, b-gal +/−; 24 h on Nutrient Agar, 150 mg/l indicator, 100 mg/l IPTG
Shigella boydii 135 = settings: Shigella boydii strain 135, b-gal −; 24 h on Nutrient Agar, 150 mg/l indicator, 100 mg/l IPTG
[4] = system: Shigella dysenteriae Serovar 1 131; settings: Shigella dysenteriae Serovar 1 strain 131, b-gal +/−; 24 h on Nutrient Agar, 150 mg/l indicator, 100 mg/l IPTG
[5] = system: Salmonella enteritidis 43; settings: Salmonella enteritidis strain 43, b-gal −; 24 h on Nutrient Agar, 150 mg/l indicator, 100 mg/l IPTG; further: key: −: absent; +/−: weak; +: strong; ++: very strong
[6] = system: Escherichia coli (O157:H7) 60; settings: Escherichia coli (O157:H7) strain 60, b-gal +; 24 h on Nutrient Agar, 150 mg/l indicator, 100 mg/l IPTG
Citrobacter freundii 181 = settings: Citrobacter freundii strain 181, b-gal +; 24 h on Nutrient Agar, 150 mg/l indicator, 100 mg/l IPTG
[7] = system: Klebsiella pneumoniae 164; settings: Klebsiella pneumoniae strain 164, b-gal +; 24 h on Nutrient Agar, 150 mg/l indicator, 100 mg/l IPTG; on C: Color of colonies: key: −: absent; +/−: weak; +: strong; ++: very strong; on G: Growth of colonies: key: −: absent; +/−: weak; +: strong; ++: very strong
Salmonella illa 73 = settings: Salmonella illa strain 73, b-gal +; 24 h on Nutrient Agar, 150 mg/l indicator, 100 mg/l IPTG
Escherichia coli 270 = settings: Escherichia coli strain 270, b-gal +; 24 h on Nutrient Agar, 150 mg/l indicator, 100 mg/l IPTG
[8] = system: Staphylococcus saprophyticus 273; settings: Staphylococcus saprophyticus strain 273, b-gal +; 24 h on Nutrient Agar, 150 mg/l indicator, 100 mg/l IPTG; on G: Growth of colonies: key: −: absent; +/−: weak; +: strong; ++: very strong
[9] = system: Yersinia enterocolitica 175; settings: Yersinia enterocolitica strain 175, b-gal +/−; 24 h on Nutrient Agar, 150 mg/l indicator, 100 mg/l IPTG; on G: Growth of colonies: key: −: absent; +/−: weak; +: strong; ++: very strong
[10] = system: Listeria monocytogenes (4b) 290; settings: Listeria monocytogenes (4b) strain 290, b-gal −; 24 h on Nutrient Agar, 150 mg/l indicator, 100 mg/l IPTG; on C: Color of colonies: key: −: absent; +/−: weak; +: strong; ++: very strong; on F: Fluorescence of colonies: key: −: absent; +/−: weak; +: strong; ++: very strong
[11] = system: Staphylococcus intermedius 31; settings: Staphylococcus intermedius strain 31, b-gal +; 24 h on Nutrient Agar, 150 mg/l indicator, 100 mg/l IPTG
Staphylococcus aureus 2 = settings: Staphylococcus aureus strain 2, b-gal −, 24 h on Nutrient Agar, 150 mg/l indicator, 100 mg/l IPTG; for C: Color of colonies: footnote 2: S. aureus natural color

CC(=O)c1ccccc1-n1cc(O[C@@H]2O[C@H](CO)[C@H](O)[C@H](O)[C@H]2O)c2ccc(Cl)cc21 [Indicator I16a, 1-(2-Acetylphenyl)-6-chloro-1H-indol-3-yl-beta-D-galactopyranoside]
C: Color of colonies (Salmonella bongori 81): +/− | F: Fluorescence of colonies (Salmonella bongori 81): +/− | G: Growth of colonies (Salmonella bongori 81): + | C: Color of colonies (Escherichia coli 61): + | F: Fluorescence of colonies (Escherichia coli 61): + | G: Growth of colonies (Escherichia coli 61): + | C: Color of colonies [1]: − | F: Fluorescence of colonies [1]: − | G: Growth of colonies [1]: +/− | C: Color of colonies [2]: + | F: Fluorescence of colonies [2]: + | G: Growth of colonies [2]: + | C: Color of colonies (Serratia marcescens 40): + | F: Fluorescence of colonies (Serratia marcescens 40): + | G: Growth of colonies (Serratia marcescens 40): + | C: Color of colonies [3]: − | G: Growth of colonies [3]: + | F: Fluorescence of colonies [3]: +^1 | C: Color of colonies (Bacillus subtilis 65): − | F: Fluorescence of colonies (Bacillus subtilis 65): − | G: Growth of colonies (Bacillus subtilis 65): + | C: Color of colonies (Enterobacter cloacae 245): + | F: Fluorescence of colonies (Enterobacter cloacae 245): + | G: Growth of colonies (Enterobacter cloacae 245): + | C: Color of colonies (Aeromonas hydrophila 292): + | F: Fluorescence of colonies (Aeromonas hydrophila 292): + | G: Growth of colonies (Aeromonas hydrophila 292): + | C: Color of colonies (Shigella sonnei 133): + | F: Fluorescence of colonies (Shigella sonnei 133): + | G: Growth of colonies (Shigella sonnei 133): + | C: Color of colonies (Shigella boydii 135): − | F: Fluorescence of colonies (Shigella boydii 135): − | G: Growth of colonies (Shigella boydii 135): + | C: Color of colonies [4]: − | F: Fluorescence of colonies [4]: − | G: Growth of colonies [4]: + | C: Color of colonies [5]: − | F: Fluorescence of colonies [5]: − | G: Growth of colonies [5]: + | C: Color of colonies [6]: + | F: Fluorescence of colonies [6]: + | G: Growth of colonies [6]: + | C: Color of colonies (Citrobacter freundii 181): + | F: Fluorescence of colonies (Citrobacter freundii 181): + | G: Growth of colonies (Citrobacter freundii 181): + | C: Color of colonies [7]: + | F: Fluorescence of colonies [7]: + | G: Growth of colonies [7]: + | C: Color of colonies (Salmonella illa 73): − | F: Fluorescence of colonies (Salmonella illa 73): − | G: Growth of colonies (Salmonella illa 73): + | C: Color of colonies (Escherichia coli 270): + | F: Fluorescence of colonies (Escherichia coli 270): + | G: Growth of colonies (Escherichia coli 270): + | C: Color of colonies [8]: + | F: Fluorescence of colonies [8]: + | G: Growth of colonies [8]: + | C: Color of colonies [9]: − | F: Fluorescence of colonies [9]: − | G: Growth of colonies [9]: + | C: Color of colonies [10]: − | F: Fluorescence of colonies [10]: − | G: Growth of colonies [10]: +/− | C: Color of colonies [11]: +/− | F: Fluorescence of colonies [11]: +/− | G: Growth of colonies [11]: +/− | F: Fluorescence of colonies (Staphylococcus aureus 2): − | G: Growth of colonies (Staphylococcus aureus 2): +/− | C: Color of colonies (Staphylococcus aureus 2): −

COc1ccc(C(=O)c2ccccc2-n2cc(O[C@@H]3O[C@H](CO)[C@H](O)[C@H](O)[C@H]3O)c3ccccc32)c(OC)c1 [Indicator I25a, 1-[2-(2,4-Dimethoxybenzoyl)phenyl]-1H-indol-3-yl-beta-D-galactopyranoside]
C: Color of colonies (Salmonella bongori 81): +/− | F: Fluorescence of colonies (Salmonella bongori 81): +/− | G: Growth of colonies (Salmonella bongori 81): + | C: Color of colonies (Escherichia coli 61): ++ | F: Fluorescence of colonies (Escherichia coli 61): ++ | G: Growth of colonies (Escherichia coli 61): + | C: Color of colonies [1]: − | F: Fluorescence of colonies [1]: − | G: Growth of colonies [1]: +/− | C: Color of colonies [2]: + | F: Fluorescence of colonies [2]: + | G: Growth of colonies [2]: + | C: Color of colonies (Serratia marcescens 40): + | F: Fluorescence of colonies (Serratia marcescens 40): +/− | G: Growth of colonies (Serratia marcescens 40): + | C: Color of colonies [3]: − | G: Growth of colonies [3]: + | F: Fluorescence of colonies [3]: +^1 | C: Color of colonies (Bacillus subtilis 65): − | F: Fluorescence of colonies (Bacillus subtilis 65): − | G: Growth of colonies (Bacillus subtilis 65): + | C: Color of colonies (Enterobacter cloacae 245): + | F: Fluorescence of colonies (Enterobacter cloacae 245): ++ | G: Growth of colonies (Enterobacter cloacae 245): + | C: Color of colonies (Aeromonas hydrophila 292): + | F: Fluorescence of colonies (Aeromonas hydrophila 292): +/− | G: Growth of colonies (Aeromonas hydrophila 292): + | C: Color of colonies (Shigella sonnei 133): + | F: Fluorescence of colonies (Shigella sonnei 133): ++ | G: Growth of colonies (Shigella sonnei 133): + | C: Color of colonies (Shigella boydii 135): − | F: Fluorescence of colonies (Shigella boydii 135): − | G: Growth of colonies (Shigella boydii 135): + | C: Color of colonies [4]: − | F: Fluorescence of colonies [4]: − | G: Growth of colonies [4]: + | C: Color of colonies [5]: − | F: Fluorescence of colonies [5]: − | G: Growth of colonies [5]: + | C: Color of colonies [6]: ++ | F: Fluorescence of colonies [6]: ++ | G: Growth of colonies [6]: + | C: Color of colonies (Citrobacter freundii 181): + | F: Fluorescence of colonies (Citrobacter freundii 181): + | G: Growth of colonies (Citrobacter freundii 181): + | C: Color of colonies [7]: + | F: Fluorescence of colonies [7]: + | G: Growth of colonies [7]: + | C: Color of colonies (Salmonella illa 73): − | F: Fluorescence of colonies (Salmonella illa 73): − | G: Growth of colonies (Salmonella illa 73): + | C: Color of colonies (Escherichia coli 270): ++ | F: Fluorescence of colonies (Escherichia coli 270): ++ | G: Growth of colonies (Escherichia coli 270): + | C: Color of colonies [8]: +/− | F: Fluorescence of colonies [8]: +/− | G: Growth of colonies [8]: + | C: Color of colonies [9]: − | F: Fluorescence of colonies [9]: − | G: Growth of colonies [9]: + | C: Color of colonies [10]: − | F: Fluorescence of colonies [10]: − | G: Growth of colonies [10]: +/− | C: Color of colonies [11]: +/− | F: Fluorescence of colonies [11]: +/− | G: Growth of colonies [11]: + | F: Fluorescence of colonies (Staphylococcus aureus 2): − | G: Growth of colonies (Staphylococcus aureus 2): + | C: Color of colonies (Staphylococcus aureus 2): +/−^2

Source: US8940909B2, “Indicator platform” (Biosynth AG, priority 2009, dated 2015)
